{"source": "patent US12209089B1", "about": "“Pyrimido[1′,6′: 1,5]pyrazolo[4,3-c] [2,7] naphthyridines as CK2 inhibitors” (KING FAISAL UNIVERSITY, priority 2024, dated 2025)", "key": {"[1]": {"tested_on": "PC3 (prostate)", "experiment": "In vitro cytotoxic activity (MTT) assay, PC3", "assay_type": "cell-based", "conditions": "Homo sapiens, Prostate cell; PC3 (prostate) cells, 96 hours exposure; read-out: Cytotoxicity activity IC50 (50% inhibition of cell proliferation)", "protocol": "(§1) Compounds 1-16 were screened for their in vitro cytotoxic activity utilizing a 3-(4,5-dimethyl-thiazol-2-yl)-2,5-diphenyltetrazolium bromide (MTT) assay against selected cancer human cell lines consisting of PC3 (prostate), HCT116 (colon), A375 (melanoma), H1299 (lung), MIAPaCa-2 (pancreas), HL60 (leukemia), MCF7 (breast), MDA-MB-231 (breast) (T. Mosmann, J. Immunol. Meth., 1983, 65, 55-63). The cells were cultured at 37° C. in RMPI1640 medium supplemented with 10% fetal bovine serum, 50 IU/mL penicillin, and 50 μg/mL streptomycin in a 5% CO2 incubator. All cells were sub-cultured 3 times/week by trypsinisation. Viable cells were seeded and allowed to adhere for 12 hours before a test drug was added in 96-well plates at an initial density of 1.0×10^5 cells/mL. Tumor cell lines were separately exposed to various concentrations of the tested compounds followed by incubation at a temperature of 37° C. during 96 hours inside a medium of fresh RMPI 1640. Cells were subsequently incubated at 37° C. using MTT at 0.5 mg/mL during 4 hours. After removal of supernatant, formazan crystals were dissolved in isopropanol and the optical density was measured at 570 nm. CX-4945 was used as a positive control."}, "[2]": {"tested_on": "MDA-MB-231 (breast)", "experiment": "In vitro cytotoxic activity (MTT) assay, MDA-MB-231", "assay_type": "cell-based", "conditions": "Homo sapiens; MDA-MB-231 (breast) cells, 96 hours exposure; read-out: Cytotoxicity activity IC50 (50% inhibition of cell proliferation)", "protocol": "as §1"}, "[3]": {"tested_on": "HCT116 (colon)", "experiment": "In vitro cytotoxic activity (MTT) assay, HCT116", "assay_type": "cell-based", "conditions": "Homo sapiens, HCT-116; HCT116 (colon) cells, 96 hours exposure; read-out: Cytotoxicity activity IC50 (50% inhibition of cell proliferation)", "protocol": "as §1"}, "[4]": {"tested_on": "MIAPaCa-2 (pancreas)", "experiment": "In vitro cytotoxic activity (MTT) assay, MIAPaCa-2", "assay_type": "cell-based", "conditions": "Homo sapiens, MIA PaCa-2; MIAPaCa-2 (pancreas) cells, 96 hours exposure; read-out: Cytotoxicity activity IC50 (50% inhibition of cell proliferation)", "protocol": "as §1"}, "[5]": {"tested_on": "MCF7 (breast)", "experiment": "In vitro cytotoxic activity (MTT) assay, MCF7", "assay_type": "cell-based", "conditions": "Homo sapiens; MCF7 (breast) cells, 96 hours exposure; read-out: Cytotoxicity activity IC50 (50% inhibition of cell proliferation)", "protocol": "as §1"}, "[6]": {"tested_on": "A375 (melanoma)", "experiment": "In vitro cytotoxic activity (MTT) assay, A375", "assay_type": "cell-based", "conditions": "Homo sapiens, A-375; A375 (melanoma) cells, 96 hours exposure; read-out: Cytotoxicity activity IC50 (50% inhibition of cell proliferation)", "protocol": "as §1"}, "[7]": {"tested_on": "HL60 (leukemia)", "experiment": "In vitro cytotoxic activity (MTT) assay, HL60", "assay_type": "cell-based", "conditions": "Homo sapiens, HL-60; HL60 (leukemia) cells, 96 hours exposure; read-out: Cytotoxicity activity IC50 (50% inhibition of cell proliferation)", "protocol": "as §1"}, "[8]": {"biological_target": "T1, recombinant human CK2 (holoenzyme) (Homo sapiens, UniProt P68400)", "T1 construct": "purchased Millipore", "T1 sequence (P68400 whole entry)": "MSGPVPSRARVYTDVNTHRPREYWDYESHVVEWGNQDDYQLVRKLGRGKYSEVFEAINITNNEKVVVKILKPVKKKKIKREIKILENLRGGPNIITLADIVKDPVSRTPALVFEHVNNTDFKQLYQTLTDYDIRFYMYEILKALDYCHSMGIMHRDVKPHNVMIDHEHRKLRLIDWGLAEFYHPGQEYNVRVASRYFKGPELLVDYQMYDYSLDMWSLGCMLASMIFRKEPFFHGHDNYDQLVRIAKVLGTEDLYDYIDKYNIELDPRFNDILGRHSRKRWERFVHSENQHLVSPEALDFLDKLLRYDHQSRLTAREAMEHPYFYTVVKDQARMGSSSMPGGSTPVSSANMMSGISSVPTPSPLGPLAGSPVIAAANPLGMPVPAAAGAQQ", "T1 sequence (P67870 whole entry partner)": "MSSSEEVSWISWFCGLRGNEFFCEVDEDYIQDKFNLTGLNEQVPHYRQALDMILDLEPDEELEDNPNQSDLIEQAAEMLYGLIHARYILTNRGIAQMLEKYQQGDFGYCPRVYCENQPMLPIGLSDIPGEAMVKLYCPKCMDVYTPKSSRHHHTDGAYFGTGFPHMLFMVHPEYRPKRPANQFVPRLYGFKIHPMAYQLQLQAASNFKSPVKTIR", "experiment": "CK2 Kinase Assay (33P-ATP, filter plate)", "assay_type": "biochemical", "conditions": "recombinant human CK2, 10 min at 30° C., eight concentrations; read-out: protein kinase CK2 IC50", "protocol": "CK2 Kinase Assay was conducted using the protocol as described in Pierre F. et al; J. Med. Chem. 2011, 54, 635-654. The tested compounds in aqueous solution were added at a volume of 10 μL to a reaction mixture comprising 10 μL of assay dilution buffer (ADB; 20 mM MOPS, pH 7.2, 25 mM B-glycerol phosphate, 5 mM EGTA, 1 mM sodium orthovanadate, and 1 mM dithiothreitol), 10 μL of substrate peptide (RRRDDDSDDD, dissolved in ADB at a concentration of 1 mM), 10 μL of recombinant human CK2 (RRBB-holoenzyme, 25 ng dissolved in ADB; Millipore). Reactions were initiated by the addition of 10 μL of ATP solution (90% 75 mMMgCl2, 75 μM ATP (final ATP concentration: […]) dissolved in ADB; 10% [y-33P]ATP (stock 1mCi/100 μL; 3000 Ci/mmol (Perkin-Elmer) and maintained for 10 min at 30° C. The reactions were quenched with 100 μL of 0.75% phosphoric acid and then transferred to and filtered through a phosphor cellulose filter plate (Millipore). After washing each well five times with 0.75% phosphoric acid, the plate was dried under vacuum for 5 min and, following the addition of 15 μL of scintillation fluid to each well, the residual radioactivity was measured using a Wallac […] counter. The IC50 values were derived from eight concentrations of test inhibitors."}, "[9]": {"tested_on": "H1299 (lung)", "experiment": "In vitro cytotoxic activity (MTT) assay, H1299", "assay_type": "cell-based", "conditions": "Homo sapiens, NCI-H1299; H1299 (lung) cells, 96 hours exposure; read-out: Cytotoxicity activity IC50 (50% inhibition of cell proliferation)", "protocol": "as §1"}}, "data": [{"smiles": "Clc1cccc(Nc2nc3c(nn4cnccc34)c3ccncc23)c1", "note": "[Compound 1, N-(3-chlorophenyl)pyrimido[1′,6′: 1,5]pyrazolo[4,3-c][2,7]naphthyridin-5-amine]", "values": [{"measurement": "IC50", "setting": "[1]", "value": 1.4, "unit": "µM"}, {"measurement": "IC50", "setting": "[2]", "value": 4.5, "unit": "µM"}, {"measurement": "IC50", "setting": "[3]", "value": 1.2, "unit": "µM"}, {"measurement": "IC50", "setting": "[4]", "value": 1.1, "unit": "µM"}, {"measurement": "IC50", "setting": "[5]", "value": 5.3, "unit": "µM"}, {"measurement": "IC50", "setting": "[6]", "value": 3.6, "unit": "µM"}, {"measurement": "IC50", "setting": "[7]", "value": 4, "unit": "µM"}, {"measurement": "IC50", "setting": "[8]", "value": 0.03, "unit": "µM"}, {"measurement": "IC50", "setting": "[9]", "value": 2.3, "unit": "µM"}]}]}
